From paper PMC9343080, “Distribution- and Metabolism-Based Drug Discovery: A Potassium-Competitive Acid Blocker as a Proof of Concept” (Research, 2022)
Like-named read-outs stand apart in the source and are kept apart here.

Assays:
[1] = Tissue distribution of SH-337 in rats (LC-MS/MS); type: in vivo, rat; settings: for concentration at 15 min / concentration at 1 h / concentration at 2 h / concentration at 4 h / concentration at 24 h: po, 4 mg/kg
Experimental: 15 SPF male SD rats were randomly divided into 5 groups, three per group. Fasting was for 4 hours. Plasma, heart, liver, and stomach were obtained 0.25, 1, 2, 4, and 24 hours after oral administration of SH-337 (0.4 mg/mL in water) at a dose of 4 mg/kg. At designated time points, rats were anesthetized with ether, and the blood samples were collected via the abdominal aorta. The blood was immediately cooled under ice-chilled conditions and centrifuged at approximately 1500 × g at 4°C for 10 minutes to obtain the plasma. For plasma: 20 μL Std samples in duplicate, QC samples in duplicate, and rat plasma samples were mixed with 60 μL ACN containing IS (200 ng/mL of tolbutamide, 50 ng/mL of propranolol, and 500 ng/mL of Dic) in EP tubes. After the mixture was vortexed for 1 min and then centrifuged for 10 min (13000 rpm, 4°C), transfer 50 μL supernatant to a 96-well plate with 150 μL pure water, shake for 10 min, and finally analyze by LC-MS/MS. For heart and liver: tissue samples were added with 3-folds (w/v) saline in terms of the weight of samples and then homogenated. 20 μL Std samples in duplicate, QC samples in duplicate, and rat heart and liver samples were mixed with 60 μL ACN containing IS (200 ng/mL of tolbutamide, 50 ng/mL of propranolol, and 500 ng/mL of Dic) in EP tubes. After the mixture was vortexed for 1 min and then centrifuged for 10 min (13000 rpm, 4°C), transfer 50 μL supernatant to a 96-well plate with 150 μL pure water, shake for 10 min, and finally analyze by LC-MS/MS. For stomach: tissue samples were added with 3-folds (w/v) saline in terms of the weight of samples and then homogenated. 20 μL Std samples in duplicate, QC samples in duplicate, and rat stomach samples were mixed with 60 μL ACN containing IS (200 ng/mL of tolbutamide, 50 ng/mL of propranolol, and 500 ng/mL of Dic) in EP tubes. After the mixture was vortexed for 1 min and then centrifuged for 10 min (13000 rpm, 4°C), transfer 50 μL supernatant to a 96-well plate with 150 μL pure water, shake for 10 min, and finally analyze by LC-MS/MS.

[2] = molecular target: T1, rabbit gastric H+, K+-ATPase (Oryctolagus cuniculus, UniProt P27112); experiment: In vitro enzymatic activity assay (inorganic phosphate from ATP hydrolysis); type: biochemical
T1 construct: using rabbit gastric H^+, K^+-ATPase; from tissue; host or cells: rabbit stomach (gastric preparation; the method of preparation is not described)
Experimental: The in vitro enzymatic activity was calculated by measuring the inorganic phosphate produced by the hydrolysis of ATP using rabbit gastric H^+, K^+-ATPase. 0.25 μg enzyme was preincubated at 37°C for 30 min in Tris-HCl buffer (2.0 mL, 50 mM, pH 6.5) containing 5 mM MgCl2, 10 μM valinomycin, 0 or 20 mM KCl, and different concentrations of SH-337 and vonoprazan. The reaction was initiated by adding 5 μL of 5 mM ATP 2Na, and the preparation was incubated for 30 min at 37°C and halted by the addition of 100 μL of malachite green reagent (0.12% malachite green, 7.5% ammonium molybdate, and 11% tween 20 were mixed in a volume ratio of 100 : 25 : 2). H^+, K^+-ATPase activity was calculated after subtracting the enzyme activity in the absence of KCl.

[3] = tested on: 2-DG-stimulated gastric acid secretion; experiment: In vivo inhibition of 2DG-stimulated acid secretion in anesthetized rats; parameters: species or system rat
Experimental: 60 SPF SD rats weighing 180-220 g were randomly divided into […]: sham, model, SH-337 (2 mg/kg and 4 mg/kg), vonoprazan (2 mg/kg), males and females are equally divided. Fasting for 24 hours, model and sham groups were treated with deionized water. Drugs and vehicle were given through intragastric administration to rats before anesthesia. 1 h after administration, pylorus was ligated. 5 min later, histamine 2HCl (30 mg/10 mL/kg) was injected subcutaneously. At 3 h after histamine administration, the rats were killed by CO2 asphyxiation. The gastric contents were collected in a 10 mL centrifuge tube after removing their stomachs. Centrifuge at 3000 g for 10 min, and then, determine the total acid output during a 3 h period by 0.1 M NaOH [52, 53]. %Inhibition = (average of modelacid–drugacid)/average of modelacid × 100%.
The 2DG-stimulated acid secretion in anesthetized rats was measured as described as for histamine-stimulated acid secretion, with the exception that 5 min after pylorus ligation, 2-DG (200 mg/10 mL/kg) was injected subcutaneously.

Rat microsomal stability = type: in vitro ADME
Experimental: The in vitro metabolic stabilities of selected compounds were performed using human and rat liver microsomes in triplicate as described previously.

[4] = rats, single oral 4 mg/kg SH-337
[5] = stomach-liver distribution ratio, rats, oral 4 mg/kg

T1 sequence (P27112 whole entry): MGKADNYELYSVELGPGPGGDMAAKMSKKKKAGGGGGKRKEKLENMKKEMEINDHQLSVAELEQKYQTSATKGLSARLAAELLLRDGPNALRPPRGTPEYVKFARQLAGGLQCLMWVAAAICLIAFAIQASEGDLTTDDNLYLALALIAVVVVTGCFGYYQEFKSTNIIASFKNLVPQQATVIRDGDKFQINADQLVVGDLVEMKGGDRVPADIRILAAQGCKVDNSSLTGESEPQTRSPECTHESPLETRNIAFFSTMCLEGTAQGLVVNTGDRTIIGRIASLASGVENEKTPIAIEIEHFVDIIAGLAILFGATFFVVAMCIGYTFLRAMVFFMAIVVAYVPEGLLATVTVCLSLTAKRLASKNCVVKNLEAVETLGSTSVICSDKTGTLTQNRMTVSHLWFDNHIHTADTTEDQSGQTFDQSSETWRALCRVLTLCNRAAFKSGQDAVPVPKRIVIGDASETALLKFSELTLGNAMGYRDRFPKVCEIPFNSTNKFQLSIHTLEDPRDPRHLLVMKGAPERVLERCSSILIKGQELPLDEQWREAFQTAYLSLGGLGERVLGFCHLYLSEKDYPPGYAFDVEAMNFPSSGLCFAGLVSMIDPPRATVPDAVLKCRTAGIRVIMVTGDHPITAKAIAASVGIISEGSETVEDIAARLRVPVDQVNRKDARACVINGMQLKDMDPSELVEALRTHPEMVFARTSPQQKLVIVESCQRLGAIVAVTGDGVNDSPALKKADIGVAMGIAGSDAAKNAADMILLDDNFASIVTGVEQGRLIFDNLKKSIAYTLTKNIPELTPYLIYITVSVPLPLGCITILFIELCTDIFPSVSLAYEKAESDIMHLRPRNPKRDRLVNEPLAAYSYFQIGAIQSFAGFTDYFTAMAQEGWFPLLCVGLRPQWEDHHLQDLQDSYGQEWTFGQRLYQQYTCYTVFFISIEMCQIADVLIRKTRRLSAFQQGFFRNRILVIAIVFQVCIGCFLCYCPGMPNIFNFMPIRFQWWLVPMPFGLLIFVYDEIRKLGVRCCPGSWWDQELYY
T1 sequence (P18597 whole entry partner): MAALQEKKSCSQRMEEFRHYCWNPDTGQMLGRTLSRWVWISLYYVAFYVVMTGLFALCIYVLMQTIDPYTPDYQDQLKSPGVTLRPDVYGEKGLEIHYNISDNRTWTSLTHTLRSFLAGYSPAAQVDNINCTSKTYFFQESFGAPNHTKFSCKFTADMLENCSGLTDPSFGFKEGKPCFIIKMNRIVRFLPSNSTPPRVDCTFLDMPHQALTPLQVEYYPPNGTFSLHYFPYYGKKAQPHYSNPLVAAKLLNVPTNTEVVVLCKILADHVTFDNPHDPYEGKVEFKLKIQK

CNCc1cc(-c2ccc(OCC3CC3)cc2F)n(S(=O)(=O)c2cccnc2)c1.Cl.Cl [SH-337, 1-(5-(4-(cyclopropylmethoxy)-2-fluorophenyl)-1-(pyridin-3-ylsulfonyl)-1H-pyrrol-3-yl)-N-methylmethanamine dihydrochloride]
C Stomach/CLiver (stomach-liver distribution ratio) ([1]; AUC, rats, i.g. 4 mg/kg SH-337): 7.1
concentration at 15 min ([1]; male, SD, rat, liver, rats, single oral 4 mg/kg SH-337, read-out: Concentration, Liver, 15 min): 5240 ng/mL
concentration at 1 h ([1]; male, SD, rat, liver, rats, single oral 4 mg/kg SH-337, read-out: Concentration, Liver, 1 h): 846 ng/mL
concentration at 2 h ([1]; male, SD, rat, liver, rats, single oral 4 mg/kg SH-337, read-out: Concentration, Liver, 2 h): 262 ng/mL
concentration at 4 h ([1]; male, SD, rat, liver, rats, single oral 4 mg/kg SH-337, read-out: Concentration, Liver, 4 h): 145 ng/mL
concentration at 24 h ([1]; male, SD, rat, liver, rats, single oral 4 mg/kg SH-337, read-out: Concentration, Liver, 24 h): 1.3 ng/mL
concentration at 1 h ([1]; male, SD, rat, plasma, rats, 1 h after oral administration of 4.0 mg/kg (Table 2), read-out: Drug concentration, Plasma): 7.1 ng/mL
concentration at 15 min ([1]; male, SD, rat, plasma, rats, single oral 4 mg/kg SH-337, read-out: Concentration, Plasma, 15 min): 9.4 ng/mL
concentration at 1 h ([1]; male, SD, rat, plasma, rats, single oral 4 mg/kg SH-337, read-out: Concentration, Plasma, 1 h): 15.5 ng/mL
concentration at 2 h ([1]; male, SD, rat, plasma, rats, single oral 4 mg/kg SH-337, read-out: Concentration, Plasma, 2 h): 5.1 ng/mL
concentration at 4 h ([1]; male, SD, rat, plasma, rats, single oral 4 mg/kg SH-337, read-out: Concentration, Plasma, 4 h): 6.7 ng/mL
AUC(0-t) ([1]; male, SD, rat, plasma, rats, single oral 4 mg/kg SH-337, read-out: AUC-last, Plasma): 32.6 ng·h/mL
Kp ([1]; male, SD, rat, stomach / plasma, oral, AUC, rats, i.g. 4 mg/kg SH-337, read-out: C Stomach/CPlasma (stomach-plasma distribution ratio)): 1360
concentration at 1 h ([1]; male, SD, rat, stomach, rats, 1 h after oral administration of 4.0 mg/kg (Table 2), read-out: Drug concentration, Stomach): 6690 ng/mL
concentration at 15 min ([1]; male, SD, rat, stomach, rats, single oral 4 mg/kg SH-337, read-out: Concentration, Stomach, 15 min): 9820 ng/mL
concentration at 1 h ([1]; male, SD, rat, stomach, rats, single oral 4 mg/kg SH-337, read-out: Concentration, Stomach, 1 h): 3340 ng/mL
concentration at 2 h ([1]; male, SD, rat, stomach, rats, single oral 4 mg/kg SH-337, read-out: Concentration, Stomach, 2 h): 3030 ng/mL
concentration at 4 h ([1]; male, SD, rat, stomach, rats, single oral 4 mg/kg SH-337, read-out: Concentration, Stomach, 4 h): 2810 ng/mL
concentration at 24 h ([1]; male, SD, rat, stomach, rats, single oral 4 mg/kg SH-337, read-out: Concentration, Stomach, 24 h): 136 ng/mL
Kp at 1 h ([1]; male, SD, rat, ratio of stomach to plasma distribution 1 h after oral administration of 4.0 mg/kg, read-out: C Stomach/CPlasma): 943
AUC0–24, Liver ([1]; rats, i.g. 4 mg/kg SH-337): 6155.6 ng equiv. h/mL or g
AUC0–24, Plasma ([1]; rats, i.g. 4 mg/kg SH-337): 32.6 ng equiv. h/mL or g
AUC0–24, Stomach ([1]; rats, i.g. 4 mg/kg SH-337): 44240.4 ng equiv. h/mL or g
retention in the stomach ([1]; rats, oral 4 mg/kg): more than 24 h
AUC-last, Liver [1, 4]: 6155.6 ng·h/g
AUC-last, Stomach [1, 4]: 44240.4 ng·h/g
Concentration, Plasma, 24 h ([1]; rats, single oral 4 mg/kg SH-337, BLQ: below limit of quantification): BLQ
CStomach/CLiver, 15 min [1, 5]: 1.9
CStomach/CLiver, 1 h [1, 5]: 3.95
CStomach/CLiver, 2 h [1, 5]: 11.6
CStomach/CLiver, 4 h [1, 5]: 19.4
CStomach/CLiver, 24 h [1, 5]: 104.9
IC50 [2]: 33.8 nM
fold greater enzyme inhibitory activity than vonoprazan ([2]; H+, K+-ATPase IC50, SH-337 vs. vonoprazan): 2.0 fold
Inhibition (%), 2-DG-stimulated model ([3]; i.g. 2 mg/kg): 78%
Total acid output, 2-DG-stimulated model ([3]; i.g. 2 mg/kg): 0.65 ± 0.31^∗∗ 10^−4 mol
Inhibition (%), 2-DG-stimulated model ([3]; i.g. 4 mg/kg): 91%
Total acid output, 2-DG-stimulated model ([3]; i.g. 4 mg/kg): 0.29 ± 0.29^∗∗ 10^−4 mol
fold reduction of t1/2 vs. vonoprazan (Rat microsomal stability; rat microsomes): 17.6 fold
half-life (Rat microsomal stability; rat, rat liver microsomes, read-out: Metabolic stability (t1/2) rat): 3.1 min
